# ChEMBL document CHEMBL3526057 (Drug Metab Dispos, 2011)
# Columns and labels:
# Type in all cases: ADME
# Conditions in all cases: recombinant enzyme, 1 h
# Cytochrome P450 2C19 [1] = target: T1, Cytochrome P450 2C19 (Homo sapiens, UniProt P33261, I19L); test: Activity of human recombinant CYP2C19.15 mutant expressed in Saccharomyces cerevisiae BJ5457 assessed as omeprazole 5'-hydroxylation per pmol protein at 100 uM after 60 mins
# Cytochrome P450 2C19 [2] = target: T2, Cytochrome P450 2C19 (Homo sapiens, UniProt P33261, R410C); test: Activity of human recombinant CYP2C19.13 mutant expressed in Saccharomyces cerevisiae BJ5457 assessed as omeprazole 5'-hydroxylation per pmol protein at 100 uM after 60 mins
# Cytochrome P450 2C19 [3] = target: T3, Cytochrome P450 2C19 (Homo sapiens, UniProt P33261, E122A); test: Activity of human recombinant CYP2C19 E122A mutant expressed in Saccharomyces cerevisiae BJ5457 assessed as omeprazole 5'-hydroxylation per pmol protein at 5 uM after 60 mins
# Cytochrome P450 2C19 [4] = target: T4, Cytochrome P450 2C19 (Homo sapiens, UniProt P33261, D360N); test: Activity of human recombinant CYP2C19 D360N mutant expressed in Saccharomyces cerevisiae BJ5457 assessed asomeprazole 5'-hydroxylation after 60 mins
# Cytochrome P450 2C19 [5] = target: T5, Cytochrome P450 2C19 (Homo sapiens, UniProt P33261, V331I/R442C); test: Activity of human recombinant CYP2C19.16 mutant expressed in Saccharomyces cerevisiae BJ5457 assessed as omeprazole 5'-hydroxylation per pmol protein at 100 uM after 60 mins
# Cytochrome P450 2C19 [6] = target: T6, Cytochrome P450 2C19 (Homo sapiens, UniProt P33261); test: Activity of human recombinant CYP2C19.1A mutant expressed in Saccharomyces cerevisiae BJ5457 assessed asomeprazole 5'-hydroxylation after 60 mins
# Cytochrome P450 2C19 [7] = target: T4, Cytochrome P450 2C19; test: Activity of human recombinant CYP2C19 D360N mutant expressed in Saccharomyces cerevisiae BJ5457 assessed asomeprazole 5'-hydroxylation per pmol protein after 60 mins
# Cytochrome P450 2C19 [8] = target: Cytochrome P450 2C19 (Homo sapiens, UniProt P33261, F168L); test: Activity of human recombinant CYP2C19 F168L mutant expressed in Saccharomyces cerevisiae BJ5457 assessed asomeprazole 5'-hydroxylation per pmol protein after 60 mins
# Cytochrome P450 2C19 [9] = target: T6, Cytochrome P450 2C19; test: Activity of human recombinant CYP2C19.8 mutant expressed in Saccharomyces cerevisiae BJ5457 assessed as omeprazole 5'-hydroxylation per pmol protein at 5 uM after 60 mins
# Cytochrome P450 2C19 [10] = target: T7, Cytochrome P450 2C19 (Homo sapiens, UniProt P33261, M74T); test: Activity of human recombinant CYP2C19 M74T mutant expressed in Saccharomyces cerevisiae BJ5457 assessed as omeprazole 5'-hydroxylation per pmol protein at 5 uM after 60 mins
# Cytochrome P450 2C19 [11] = target: T2, Cytochrome P450 2C19; test: Activity of human recombinant CYP2C19.13 mutant expressed in Saccharomyces cerevisiae BJ5457 assessed as intrinisic clearance foromeprazole 5'-hydroxylation per pmol protein after 60 mins
# Cytochrome P450 2C19 [12] = target: T8, Cytochrome P450 2C19 (Homo sapiens, UniProt P33261, P227L); test: Activity of human recombinant CYP2C19.10 mutant expressed in Saccharomyces cerevisiae BJ5457 assessed asomeprazole 5'-hydroxylation after 60 mins
# Cytochrome P450 2C19 [13] = target: Cytochrome P450 2C19 (Homo sapiens, UniProt P33261, S51G); test: Activity of human recombinant CYP2C19.19 mutant expressed in Saccharomyces cerevisiae BJ5457 assessed as intrinisic clearance foromeprazole 5'-hydroxylation per pmol protein after 60 mins
# Cytochrome P450 2C19 [14] = target: T9, Cytochrome P450 2C19 (Homo sapiens, UniProt P33261, R144H); test: Activity of human recombinant CYP2C19.9 mutant expressed in Saccharomyces cerevisiae BJ5457 assessed asomeprazole 5'-hydroxylation per pmol protein after 60 mins
# Cytochrome P450 2C19 [15] = target: T2, Cytochrome P450 2C19; test: Activity of human recombinant CYP2C19.13 mutant expressed in Saccharomyces cerevisiae BJ5457 assessed asomeprazole 5'-hydroxylation after 60 mins
# Cytochrome P450 2C19 [16] = target: T5, Cytochrome P450 2C19; test: Activity of human recombinant CYP2C19.16 mutant expressed in Saccharomyces cerevisiae BJ5457 assessed asomeprazole 5'-hydroxylation per pmol protein after 60 mins
# Cytochrome P450 2C19 [17] = target: T10, Cytochrome P450 2C19 (Homo sapiens, UniProt P33261, A161P); test: Activity of human recombinant CYP2C19 A161P mutant expressed in Saccharomyces cerevisiae BJ5457 assessed asomeprazole 5'-hydroxylation after 60 mins
# Cytochrome P450 2C19 [18] = target: T7, Cytochrome P450 2C19; test: Activity of human recombinant CYP2C19 M74T mutant expressed in Saccharomyces cerevisiae BJ5457 assessed as intrinisic clearance foromeprazole 5'-hydroxylation per pmol protein after 60 mins
# Cytochrome P450 2C19 [19] = target: T8, Cytochrome P450 2C19; test: Activity of human recombinant CYP2C19.10 mutant expressed in Saccharomyces cerevisiae BJ5457 assessed as omeprazole 5'-hydroxylation per pmol protein at 5 uM after 60 mins
# Cytochrome P450 2C19 [20] = target: T11, Cytochrome P450 2C19 (Homo sapiens, UniProt P33261, R329H); test: Activity of human recombinant CYP2C19.18 mutant expressed in Saccharomyces cerevisiae BJ5457 assessed asomeprazole 5'-hydroxylation per pmol protein after 60 mins
# Cytochrome P450 2C19 [21] = target: T10, Cytochrome P450 2C19; test: Activity of human recombinant CYP2C19 A161P mutant expressed in Saccharomyces cerevisiae BJ5457 assessed as omeprazole 5'-hydroxylation per pmol protein at 100 uM after 60 mins
# Cytochrome P450 2C19 [22] = target: T11, Cytochrome P450 2C19; test: Activity of human recombinant CYP2C19.18 mutant expressed in Saccharomyces cerevisiae BJ5457 assessed as omeprazole 5'-hydroxylation per pmol protein at 100 uM after 60 mins
# Cytochrome P450 2C19 [23] = target: T1, Cytochrome P450 2C19; test: Activity of human recombinant CYP2C19.15 mutant expressed in Saccharomyces cerevisiae BJ5457 assessed asomeprazole 5'-hydroxylation after 60 mins
# Cytochrome P450 2C19 [24] = target: T11, Cytochrome P450 2C19; test: Activity of human recombinant CYP2C19.18 mutant expressed in Saccharomyces cerevisiae BJ5457 assessed asomeprazole 5'-hydroxylation after 60 mins
# Cytochrome P450 2C19 [25] = target: Cytochrome P450 2C19 (Homo sapiens, UniProt P33261, R150H); test: Activity of human recombinant CYP2C19.11 mutant expressed in Saccharomyces cerevisiae BJ5457 assessed asomeprazole 5'-hydroxylation per pmol protein after 60 mins
# Cytochrome P450 2C19 [26] = target: T9, Cytochrome P450 2C19; test: Activity of human recombinant CYP2C19.9 mutant expressed in Saccharomyces cerevisiae BJ5457 assessed as omeprazole 5'-hydroxylation per pmol protein at 100 uM after 60 mins
# Cytochrome P450 2C19 [27] = target: T6, Cytochrome P450 2C19; test: Activity of human recombinant CYP2C19.1A mutant expressed in Saccharomyces cerevisiae BJ5457 assessed as omeprazole 5'-hydroxylation per pmol protein at 5 uM after 60 mins
# Cytochrome P450 2C19 [28] = target: T2, Cytochrome P450 2C19; test: Activity of human recombinant CYP2C19.13 mutant expressed in Saccharomyces cerevisiae BJ5457 assessed asomeprazole 5'-hydroxylation per pmol protein after 60 mins
# Cytochrome P450 2C19 [29] = target: T3, Cytochrome P450 2C19; test: Activity of human recombinant CYP2C19 E122A mutant expressed in Saccharomyces cerevisiae BJ5457 assessed as omeprazole 5'-hydroxylation per pmol protein at 100 uM after 60 mins
# Cytochrome P450 2C19 [30] = target: T7, Cytochrome P450 2C19; test: Activity of human recombinant CYP2C19 M74T mutant expressed in Saccharomyces cerevisiae BJ5457 assessed asomeprazole 5'-hydroxylation per pmol protein after 60 mins
# Cytochrome P450 2C19 [31] = target: T1, Cytochrome P450 2C19; test: Activity of human recombinant CYP2C19.15 mutant expressed in Saccharomyces cerevisiae BJ5457 assessed asomeprazole 5'-hydroxylation per pmol protein after 60 mins
# Cytochrome P450 2C19 [32] = target: Cytochrome P450 2C19 (Homo sapiens, UniProt P33261, E92D); test: Activity of human recombinant CYP2C19 E92D mutant expressed in Saccharomyces cerevisiae BJ5457 assessed as omeprazole 5'-hydroxylation per pmol protein at 100 uM after 60 mins
smiles,measurement,setting,value
COc1ccc2[nH]c([S+]([O-])Cc3ncc(C)c(OC)c3C)nc2c1 (configuration not stated) [OMEPRAZOLE],Drug metabolism,Cytochrome P450 2C19 [1],7.81 pmol/min
same,Drug metabolism,Cytochrome P450 2C19 [2],8.55 pmol/min
same,Drug metabolism,Cytochrome P450 2C19 [3],1.58 pmol/min
same,Km,Cytochrome P450 2C19 [4],7.81 µM
same,Drug metabolism,Cytochrome P450 2C19 [5],1.41 pmol/min
same,Km,Cytochrome P450 2C19 [6],5.42 µM
same,Vmax,Cytochrome P450 2C19 [7],4.11 pmol/min
same,Vmax,Cytochrome P450 2C19 [8],6.05 pmol/min
same,Drug metabolism,Cytochrome P450 2C19 [9],metabolite_not_detected
same,Drug metabolism,Cytochrome P450 2C19 [10],2.24 pmol/min
same,CL,Cytochrome P450 2C19 [11],1.54 µL/min
same,Km,Cytochrome P450 2C19 [12],10.6 µM
same,CL,Cytochrome P450 2C19 [13],0.66 µL/min
same,Vmax,Cytochrome P450 2C19 [14],6.21 pmol/min
same,Km,Cytochrome P450 2C19 [15],4.87 µM
same,Vmax,Cytochrome P450 2C19 [16],1.68 pmol/min
same,Km,Cytochrome P450 2C19 [17],6.68 µM
same,CL,Cytochrome P450 2C19 [18],1.11 µL/min
same,Drug metabolism,Cytochrome P450 2C19 [19],1.94 pmol/min
same,Vmax,Cytochrome P450 2C19 [20],7.77 pmol/min
same,Drug metabolism,Cytochrome P450 2C19 [21],1.39 pmol/min
same,Drug metabolism,Cytochrome P450 2C19 [22],4.83 pmol/min
same,Km,Cytochrome P450 2C19 [23],6.78 µM
same,Km,Cytochrome P450 2C19 [24],6.02 µM
same,Vmax,Cytochrome P450 2C19 [25],8.34 pmol/min
same,Drug metabolism,Cytochrome P450 2C19 [26],5.48 pmol/min
same,Drug metabolism,Cytochrome P450 2C19 [27],2.75 pmol/min
same,Vmax,Cytochrome P450 2C19 [28],7.83 pmol/min
same,Drug metabolism,Cytochrome P450 2C19 [29],4.71 pmol/min
same,Vmax,Cytochrome P450 2C19 [30],4.03 pmol/min
same,Vmax,Cytochrome P450 2C19 [31],8.18 pmol/min
same,Drug metabolism,Cytochrome P450 2C19 [32],7.02 pmol/min
